Data from publication PMC4682634 (PLoS ONE, 2015).

Biological target: T1, endogenous BK channel (Rattus norvegicus, UniProt Q62976)
T1 construct: gene Kcnma1; endogenous BK in A7r5 smooth muscle cells
Assay: whole-cell patch-clamp, paxilline-sensitive current density in A7r5 cells
Format: cell-based

T1 sequence (Q62976 whole entry): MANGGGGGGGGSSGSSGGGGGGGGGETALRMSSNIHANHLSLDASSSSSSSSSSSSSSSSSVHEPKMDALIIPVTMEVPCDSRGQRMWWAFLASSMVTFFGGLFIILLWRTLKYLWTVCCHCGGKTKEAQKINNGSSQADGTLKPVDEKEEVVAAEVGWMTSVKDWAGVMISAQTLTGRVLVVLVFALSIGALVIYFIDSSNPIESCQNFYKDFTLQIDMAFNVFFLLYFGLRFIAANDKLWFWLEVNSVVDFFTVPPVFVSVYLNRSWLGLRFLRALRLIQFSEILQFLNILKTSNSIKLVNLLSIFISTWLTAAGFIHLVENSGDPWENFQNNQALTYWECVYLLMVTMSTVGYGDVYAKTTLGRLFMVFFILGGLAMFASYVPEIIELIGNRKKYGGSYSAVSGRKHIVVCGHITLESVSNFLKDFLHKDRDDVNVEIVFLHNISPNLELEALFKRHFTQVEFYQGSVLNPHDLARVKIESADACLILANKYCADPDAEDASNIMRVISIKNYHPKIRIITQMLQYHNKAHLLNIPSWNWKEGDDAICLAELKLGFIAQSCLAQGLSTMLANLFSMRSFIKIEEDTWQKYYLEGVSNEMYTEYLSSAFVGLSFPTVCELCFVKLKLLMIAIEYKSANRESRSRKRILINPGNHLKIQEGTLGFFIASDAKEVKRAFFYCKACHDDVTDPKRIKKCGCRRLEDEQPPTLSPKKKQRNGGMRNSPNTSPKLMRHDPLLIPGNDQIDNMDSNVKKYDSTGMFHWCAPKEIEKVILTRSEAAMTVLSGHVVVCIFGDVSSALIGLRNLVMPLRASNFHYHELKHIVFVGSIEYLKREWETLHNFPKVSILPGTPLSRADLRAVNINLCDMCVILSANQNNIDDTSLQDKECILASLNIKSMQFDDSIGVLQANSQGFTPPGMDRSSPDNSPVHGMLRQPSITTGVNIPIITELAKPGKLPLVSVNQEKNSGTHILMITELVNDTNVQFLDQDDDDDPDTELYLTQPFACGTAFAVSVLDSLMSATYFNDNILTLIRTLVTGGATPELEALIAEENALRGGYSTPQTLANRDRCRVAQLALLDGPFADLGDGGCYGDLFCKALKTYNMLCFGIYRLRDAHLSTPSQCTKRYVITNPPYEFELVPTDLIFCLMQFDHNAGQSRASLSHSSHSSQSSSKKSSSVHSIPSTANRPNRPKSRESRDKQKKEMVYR

Work on `COc1cc(/C=C/C(=O)CC(=O)/C=C/c2ccc(O)c(OC)c2)ccc1O` [curcumin] yielded an EC50 of 6.93 ± 0.78 µM.
